Laboratory results reported in patent US5866787A, “Transgenic plants co-expressing a functional human 2-5A system” (Cleveland Clinic Foundation, priority 1995, dated 1999).
Values belong to the molecule of their own block, whether it stands above or below them.

Legend:
[1] = test system: RNase L; assay: 2-5A uptake by cut leaves, 18S rRNA northern blot; assay type: cell-based, transgenic plant expressing human RNase L; settings: 1 μM taken up by cut leaves for seven hours; not in control plant
Procedure: FIG. 30 illustrates that RNase L in cut leaves is activated to cleave rRNA by incubation in a solution containing 2-5A. A northern blot probed with ^32 P-labeled cDNA to […] rRNA is shown. The cut leaves are from a control plant (lanes 1 and 2) or from a plant transgenic for human RNase L cDNA (lanes 3 and 4). The presence or absence of 2-5A and the position of the 2-5A-mediated rRNA cleavage products are shown.
Leaves from control and transgenic plants are cut and allowed to take up 2-5A [1 μM of p3 (A2'p)3 A] through the petiole for about seven hours at room temperature under fluorescent light. Total RNA is prepared and used to prepare northern blots. THe RNA in the blots is hybridized to a ^32 P labeled human 18S rRNA cDNA probe (the cDNA is provided by Dr. John Thaden, Baltimore).
To monitor uptake of 2-5A, leaves are cut at the base of the petiole and then placed in a solution of ^32 P-labeled 2-5A probe for about three hours at room temperature under light. The petiole was cut further and autoradiograms were made from the lamina. Uptake and translocation of the 2-5A probe is readily apparent through veins to all parts of lamina (data now shown). Catalytic activity of RNase L in the intact leaves is determined after allowing unlabeled 2-5A, p3 A(2'p5'A)3 (1 μM), to be taken up by cut leaves for seven hours. […]

[2] = test system: RNase L; assay: 2-5A injection into detached leaves, 18S rRNA northern blot; assay type: cell-based, transgenic tobacco; settings: about 2.5 μM injected, about 3 hrs; not in control or synthetase-only plants
Procedure: FIG. 24. […] Leaves are injected with about 2.5 μM 2-5A, total RNA is extracted after 3 hr and probed with ^32 P-labeled 18S cDNA. Lanes 1-2, control plant, lanes 3 and 4, plant expressing only 2-5A synthetase (Syn); lane 5, plant expressing only RNase L (RL); lanes 6-7, plants expressing both 2-5A synthetase and RNase L (Syn+RL).
Functional expression of RNase L in transgenic tobacco plants is detected by 2-5A-induced breakdown of 18S ribosomal RNA (rRNA) in detached leaves that are injected with 2-5A. Transgenic leaves are injected with about 2.5 μM p3 A(2'p5'A)3 and are incubated for about 3 hrs before total RNA is prepared. […] In addition, plants expressing RNase L are believed to have specific 2-5A binding activity that is absent in control, non-transgenic plants.

[3] = test system: 2-5A-dependent RNase; settings: cited from earlier work
[4] = test system: recombinant human RNase L; assay: 2-5A dependent ribonuclease L assay, poly(U) cleavage; assay type: biochemical; settings: about 30° C. for about 2 hr
Procedure: FIG. 25. Transgenic plants produce functional, human recombinant 2-5A synthetase. Extracts of plants containing cDNA to both human RNase L and 2-5A synthetase (lanes 8-11), of control plants that are transformed with vector alone (lanes 12-15), and of interferon treated human HeLa cells (lanes 16 and 17) are assayed for 2-5A synthetase activity. 2-5A synthetase activity in extracts of transgenic plants is determined by a functional assay for 2-5A. […] The total cell lysates are centrifuged at about 10,000×g for about 10 min at about 4° C., the supernatants are collected and the protein concentration is determined as described in Bradford, M. et al.: Anal. Biochem., 72:248 (1976). […] 2-5A is monitored by its ability to activate RNase L, which are expressed and isolated from insect cells, Dong, B. et al.: J. Biol. Chem., 269:14153 (1994), to cleave poly (U) to discrete products (arrows). […]
To determine if 2-5A synthetase is present in the transgenic tobacco plants, functional assays for the enzyme are performed. 2-5A synthetase activity in extracts of transgenic plants is determined by a functional assay for 2-5A. […] The total cell lysates are centrifuged at about 10,000×g for about 10 min at about 4° C., the supernatants are collected and the protein concentration is determined. […]

[5] = test system: 2-5A-dependent RNase; settings: depending on the cell type; cited from earlier work
[6] = test system: poly(U); assay: Ribonuclease assay with 2-5A-cellulose, poly(U) substrate; assay type: biochemical; settings: enzyme translated in reticulocyte lysate, bound to 2-5A-cellulose, 30° C.
Procedure: (§1) FIG. 5B is reticulocyte lysate pretreated to remove endogenous 2-5A-dependent RNase and is incubated in the absence of added mRNA (.box-solid.), in the presence of human 2-5A-dependent RNase mRNA without inhibitor (.smallcircle., .quadrature.) or in the presence of both 2-5A-dependent RNase mRNA and cycloheximide (50 μg per ml (.circle-solid.). See Example I. Subsequently, the recombinant 2-5A-dependent RNase (or controls) is adsorbed to 2-5A-cellulose and ribonuclease assays are performed after extensive washing of the matrix to reduce general nuclease activity. Radiolabeled substrate RNA was either poly(U) (.smallcircle., .circle-solid., .box-solid.) or poly(C) (.quadrature.).
(§2) The ribonuclease assay with 2-5A-cellulose is performed, as described by Silverman, R. H., Anal. Biochem., 144:450-460 (1985). Briefly, lysates are adsorbed to about […] of 2-5A-cellulose on ice for about two hours. The matrix is then washed three times by centrifuging and resuspending in buffer A. See Silverman, R. H., Anal. Biochem., 144:450-460 (1985). The matrix is then incubated with poly(U)-[^32 P]Cp or poly(C)-[^32 P]Cp (both at about 16 μM in nucleotide equivalents) at about 30° C. and the levels of acid-precipitable radioactive RNA are determined by filtration on glass-fiber filters.

[7] = test system: poly(C); assay: Ribonuclease assay with 2-5A-cellulose, poly(C) substrate; assay type: biochemical; settings: after one hour of incubation
Procedure: as §1, §2

[8] = test system: 32P-2-5A probe; assay: 2-5A probe crosslinking to lysine to asparagine mutants, phosphorimager analysis; assay type: binding; settings: uv crosslinking, phosphorimager analysis of dried gel

degradation of rRNA in plants expressing RNase L [2]: degradation of rRNA
Molecule: p3 A(2'p5'A)3
degradation of 18S rRNA in RNase L expressing plants [1]: induce degradation of the 18S rRNA to discrete cleavage products

Molecule: Nc1ncnc2c1ncn2[C@@H]1O[C@H](COP(=O)(O)OP(=O)(O)OP(=O)(O)O)[C@@H](O)[C@H]1O [ATP]
stimulatory effect on 2-5A-dependent RNase activity [3]: two-fold

Molecule: pA(2'p5'A)3
activation of RNase L to cleave poly(U) [4]: production of discrete poly (U) cleavage products

Molecule: interferon
enhancement of levels of 2-5A-dependent RNase [5]: two- to twenty-fold

B1: recombinant human 2-5A-dependent RNase: full-length human 2-5A-dependent RNase (clone ZC5) produced in vitro in reticulocyte lysate (protein)
chain: MESRDHNNPQEGPTSSSGRRAAVEDNHLLIKAVQNEDVDLVQQLLEGGANVNFQEEEGGWTPLHNAVQMSREDIVELLLRHGADPVLRKKNGATLFILAAIAGSVKLLKLFLSKGADVNECDFYGFTAFMEAAVYGKVKALKFLYKRGANVNLRRKTKEDQERLRKGGATALMDAAEKGHVEVLKILLDEMGADVNACDNMGRNALIHALLSSDDSDVEAITHLLLDHGADVNVRGERGKTPLILAVEKKHLGLVQRLLEQEHIEINDTDSDGKTALLLAVELKLKKIAELLCKRGASTDCGDLVMTARRNYDHSLVKVLLSHGAKEDFHPPAEDWKPQSSHWGAALKDLHRIYRPMIGKLKFFIDEKYKIADTSEGGIYLGFYEKQEVAVKTFCEGSPRAQREVSCLQSSRENSHLVTFYGSESHRGHLFVCVTLCEQTLEACLDVHRGEDVENEEDEFARNVLSSIFKAVQELHLSCGYTHQDLQPQNILIDSKKAAHLADFDKSIKWAGDPQEVKRDLEDLGRLVLYVVKKGSISFEDLKAQSNEEVVQLSPDEETKDLIHRLFHPGEHVRDCLSDLLGHPFFWTWESRYRTLRNVGNESDIKTRKSESEILRLLQPGPSEHSKSFDKWTTKINECVMKKMNKFYEKRGNFYQNTVGDLLKFIRNLGEHIDEEKHKKMKLKIGDPSLYFQKTFPDLVIYVYTKLQNTEYRKHFPQTHSPNKPQCDGAGGASGLASPGC
half-life of poly(U) degradation [6]: about 10 minutes
poly(C) degraded [7]: 20%

2-5A binding activity, % of clone ZB1 [8]: 12.2%
B2: ZB1(Lys^240,274 →Asn): clone ZB1 double mutant, lysines 240 and 274 mutated to asparagine (protein, UniProt Q05921 1-735, looked up, variant K240N K274N)
2-5A-dependent ribonuclease: METPDYNTPQGGTPSAGSQRTVVEDDSSLIKAVQKGDVVRVQQLLEKGADANACEDTWGWTPLHNAVQAGRVDIVNLLLSHGADPHRRKKNGATPFIIAGIQGDVKLLEILLSCGADVNECDENGFTAFMEAAERGNAEALRFLFAKGANVNLRRQTTKDKRRLKQGGATALMSAAEKGHLEVLRILLNDMKAEVDARDNMGRNALIRTLLNWDCENVEEITSILIQHGADVNVRGERGNTPLIAAVERKHTGLVQMLLSREGINIDARDNEGNTALLIAVDKQLKEIVQLLLEKGADKCDDLVWIARRNHDYHLVKLLLPYVANPDTDPPAGDWSPHSSRWGTALKSLHSMTRPMIGKLKIFIHDDYKIAGTSEGAVYLGIYDNREVAVKVFRENSPRGCKEVSCLRDCGDHSNLVAFYGREDDKGCLYVCVSLCEWTLEEFLRLPREEPVENGEDKFAHSILLSIFEGVQKLHLHGYSHQDLQPQNILIDSKKAVRLADFDQSIRWMGESQMVRRDLEDLGRLVLYVVMKGEIPFETLKTQNDEVLLTMSPDEETKDLIHCLFSPGENVKNCLVDLLGHPFFWTWENRYRTLRNVGNESDIKVRKCKSDLLRLLQHQTLEPPRSFDQWTSKIDKNVMDEMNHFYEKRKKNPYQDTVGDLLKFIRNIGEHINEEKKRGMKEILGDPSRYFQETFPDLVIYIYKKLKETEYRKHFPQPPPRLSVPEAVGPGGIQS
